Laboratory results: ChEMBL document CHEMBL3045808, “Insect antifeedants from Munronia henryi: structure of munroniamide” (2003)

What was measured:
[1] = tested on: Pieris brassicae; assay: Insecticidal activity against fasted third-instar larvae of Pieris brassicae infested in compound-treated Brassica oleracea leaves assessed as mortality at 1000 ppm after 6 days relative to control; assay type: functional; details: 144 h
[2] = tested on: Pieris brassicae; assay: Antifeedant activity against fasted third-instar larvae of Pieris brassicae infested in compound-treated Brassica oleracea leaves at 1000 ppm after 48 hr by leaf-disc method relative to control; assay type: functional

| Compound | mortality at 1000 ppm [1] | Activity [2] |
| --- | --- | --- |
| CCCCCCCCCCCCC/C=C/[C@@H](O)[C@H](CO)NC(=O)[C@H](O)CCCCCCCCCCCCCCCCCCCCCC | 0% | 0% |
| C=C1[C@@H]2[C@@H](OC(=O)C=C[C@@]2(C)[C@H]2CC(=O)OC2(C)C)[C@H](OC(C)=O)[C@@]2(C)[C@H](C3=CCN(C(=O)CCNN)C3=O)C[C@H]3O[C@]132 [MUNRONIAMIDE] | 10% | 27.6% |
| CCCCCCCCC/C=C\CCC[C@@H](O)[C@@H](O)[C@H](CO[C@@H]1O[C@H](CO)[C@@H](O)[C@H](O)[C@H]1O)NC(=O)[C@H](O)CCCCCCCCCCCCCCCCCCCCCC | 50% | 62% |
| C/C=C(\C)C(=O)O[C@H]1C[C@@H](OC(C)=O)[C@@]2(C(=O)OC)CO[C@H]3[C@@H](O)[C@@](C)([C@]45O[C@@]4(C)[C@@H]4C[C@H]5O[C@@H]5OC=C[C@@]54O)[C@H]4[C@]1(CO[C@]4(O)C(=O)OC)[C@@H]32 [AZADIRACHTIN A] | 100% | 99.5% |
| CCCCCCCCC/C=C/CCC[C@@H](O)[C@@H](O)[C@H](CO)NC(=O)[C@H](O)CCCCCCCCCCCCCCCCCCCCCC | 0% | 3% |
